Legend:
OCI-Ly10 cells = assay: Cell cycle distribution, PI and BrdU double staining; type: cell-based; settings: short time (5 hour) treatment
Procedure: (§1) The indicated ABC DLBCL cells were seeded at 3×10^5 cells/ml in 6-well plates and cultured in the presence of DMSO (0.2%, control) or various concentrations of NSC697923 for 24 hours. The live and dead cells were counted using the trypan blue exclusion assay. Shown are the means from three separate experiments. The average number of live cells in the control was set at 100. […] The levels of the indicated proteins were analyzed by western blotting. For caspase 3 detection, a mixture of an antibody for the uncleaved form and an antibody specific for the cleaved form was used. In FIG. 7C, OCI-Ly10 cells were treated as in FIG. 7A. The apoptotic cells (Annexin V positive cells) were measured by flow cytometry as described in Example 1 infra. A representative result from three independent experiments is depicted. […] BrdU was then added into the culture medium for 30 minutes before the cell-cycle distribution of the treated cells was analyzed as described in Example 1 infra. Shown are the averages from two independent experiments. […] BrdU was then added into the culture medium for 30 minutes before the cell-cycle distribution of the treated cells was analyzed as described in Example 1 infra. Shown are the averages from two independent experiments. […]

OCI-Ly7 cells = assay: as above; type: cell-based; settings: short time (5 hour) treatment
Procedure: as §1

[1] = tested on: IκBα phosphorylation by RANKL in RAW264.7 cells; assay: IκBα phosphorylation after RANKL, western blot; type: cell-based; settings: RAW264.7, RANKL 15 ng/ml
Procedure: (§2) SUDHL-6, RAW264.7, and MEF cells were treated with NSC697923 or DMSO (control) for 1 hour before being stimulated with the PMA (100 ng/ml), RANKL (15 ng/ml), and LPS (1.5 μg/ml) for the indicated times. The levels of IκBα phosphorylation in the indicated samples were assessed by western blotting.

Ubc13 in OCI-Ly10 cells = target: T1, Ubc13 in OCI-Ly10 cells (Homo sapiens, UniProt P61088); assay: Ubc13~Ub conjugate formation in DLBCL cells, western blot; type: cell-based; settings: 3 hours
T1 construct: endogenous in cells; host or cells: OCI-Ly10
T1 sequence (P61088 whole entry): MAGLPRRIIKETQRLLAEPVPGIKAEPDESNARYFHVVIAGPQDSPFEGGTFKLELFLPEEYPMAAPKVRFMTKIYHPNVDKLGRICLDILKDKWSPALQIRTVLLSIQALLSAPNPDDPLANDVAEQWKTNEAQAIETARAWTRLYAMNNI
Procedure: OCI-Ly10 cells were treated with the indicated concentrations of NSC697923 for 3 hours. The levels of Ubc13˜Ub conjugate were analyzed by western blotting using a Ubc13-specific antibody as described in FIG. 4B. […] OCI-Ly10 cells were treated with DMSO (0.1%) or the indicated concentrations of NSC697923 for 3.5 hours. The levels of the indicated proteins were analyzed by western blotting with the respective antibodies.

Ubc13-Uev1A = target: T2, Ubc13-Uev1A (Homo sapiens, UniProt P61088); assay: In vitro ubiquitination assay, Ubc13-Uev1A; type: biochemical
T2 construct: purchased Boston Biochem Inc E2-600 (Ubc13); E2-662 (Uev1A)
T2 sequence (P61088 whole entry): as above
T2 sequence (Q13404 whole entry partner): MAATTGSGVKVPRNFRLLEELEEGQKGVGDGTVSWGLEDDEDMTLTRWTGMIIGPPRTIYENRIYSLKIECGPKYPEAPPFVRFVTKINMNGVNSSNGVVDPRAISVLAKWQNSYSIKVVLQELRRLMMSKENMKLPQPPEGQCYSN
Procedure: The in vitro reaction, which contains purified E1, ubiquitin, Ubc13, and Uev1A, was carried out with or without the indicated concentrations of NSC697923. The reaction products were analyzed by a ubiquitin-specific antibody on western blots. FIG. 4B is the same as FIG. 4A, except that purified GST-TRAF6 was included as the E3 in the complete reaction as indicated. […] The assay was carried out as in FIG. 4B, except that UbcHSc instead of Ubc13-Uev1A was used as the E2 in the ubiquitination reaction.
The purified recombinant proteins used in the in vitro ubiquitination reactions were all purchased from Boston Biochem Inc, except GST-TRAF6, which was expressed and purified as described above. The reactions were carried out at 37° C. for 40 minutes in a buffer containing 50 mM Tris-HCl, pH 7.5, 5 mM MgCl2, 200 μM ATP, 120 μM ubiquitin (U-100H), and 0.1 μM E1 (E-304). For the Ubc13-mediated ubiquitin chain synthesis, the reaction mixture includes 0.2 μM Ubc13 (E2-600) and […] Uev1A (E2-662) with or without GST-TRAF6 as indicated. For UbcHSc-catalyzed ubiquitination, UbcHSc (E2-627), instead of Ubc13 and Uev1A, was used in the reaction. […] The reactions were terminated by the addition of an equal volume of SDSPAGE sample buffer, and the products were analyzed by western blotting with a ubiquitin specific antibody.

UbcH5c = target: T3, UbcH5c (Homo sapiens, UniProt P61077); assay: In vitro UbcH5c~Ub thioester conjugate formation; type: biochemical
T3 construct: purchased Boston Biochem Inc E2-627
T3 sequence (P61077 whole entry): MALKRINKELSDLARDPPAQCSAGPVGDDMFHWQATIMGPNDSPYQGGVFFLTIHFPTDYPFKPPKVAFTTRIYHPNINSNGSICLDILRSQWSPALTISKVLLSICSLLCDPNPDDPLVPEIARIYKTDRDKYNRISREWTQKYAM
Procedure: Purified GST or GST-Ubc13 fusion proteins were incubated with the cell extract prepared from OCI-Ly10 cells with or without the presence of NSC697923 as indicated. The amounts of Uev1A protein associated with GST or GST-Ubc13 were analyzed by western blotting. The first lane was loaded with 8% of the input cell lysate. […] The assay was carried out as described in FIG. 4A, except that the loading buffer for SDS-PAGE gel contains no reducing agent, unless otherwise specified, and the reaction was analyzed by western blotting with a Ubc13-specific antibody. […] The assay was carried out as in FIG. 5B, except that UbcHSc, instead of Ubc13 and Uev1A, was used in the ubiquitination reaction and that a UbcHSc antibody was used for western blot analysis.
For detecting the E2-ubiquitin (Ubc13˜Ub or UbcH5c˜Ub) thioester conjugates, the reactions were carried out as described above without GST-TRAF6. The reactions were terminated with the SDS-sample buffer without a reducing agent unless specified. The products were analyzed by western blotting with an anti-Ubc13 or anti-UbcHSc antibody as indicated.

[2] = tested on: PMA-induced NF-κB activation in SUDHL-6 cells; assay: IκBα phosphorylation after PMA, western blot; type: cell-based; settings: SUDHL-6, PMA 100 ng/ml
Procedure: as §2

In the case of Cc1ccc(S(=O)(=O)c2ccc([N+](=O)[O-])o2)cc1 [NSC697923, 2-nitro-5-tosylfuran], the “cells in S phase” value (OCI-Ly10 cells) is reported as “marked decrease of cells in S phase”, the “cells in S phase” value (OCI-Ly7 cells) is reported as “marked decrease of cells in S phase” and the “IκBα phosphorylation by RANKL” value [1] is reported as “inhibited”. For the same compound, the “formation of the Ubc13~Ub conjugate in cells” value (Ubc13 in OCI-Ly10 cells) was “inhibited formation of the Ubc13˜Ub conjugate”, the “polyubiquitin chain formation catalyzed by Ubc13-Uev1A” value (Ubc13-Uev1A; E1, ubiquitin, Ubc13, Uev1A, without E3) was “inhibited polyubiquitin chain formation catalyzed by Ubc13-Uev1A complex in a dose-dependent manner” and the “ubiquitin chain formation catalyzed by Ubc13-Uev1A together with TRAF6” value (Ubc13-Uev1A; GST-TRAF6 as E3) was “similarly inhibited by NSC697923 in a dose-dependent manner”. For the same compound, the “formation of UbcH5c~Ub conjugate” value (UbcH5c) was “is not inhibited” and the “PMA-induced NF-κB activation (IκBα phosphorylation)” value [2] was “inhibiting”.

Source: US9458123B2, “Methods, pharmaceutical compositions, therapeutic systems, and compounds for treating B cell malignancies” (University of Rochester, priority 2012, dated 2016)
